Measured values from patent US9464084B2, “P2X7 modulators” (Janssen Pharmaceutica NV, priority 2013, dated 2016).
pIC50: −log10 of the molar value. Values belong to the compound of their own block, whether it stands above or below them.

How the values were obtained:
Type in all cases: cell-based
P2X7 [1] = molecular target: T1, P2X7 (Homo sapiens (Human), UniProt Q99572); assay: P2X7 antagonism in human PBMCs (LPS + Bz-ATP induced IL-1β release, ELISA); details: LPS 30 ng/ml, Bz-ATP 0.5 mM; for PBMC 1 μM (% control): compound 1 μM; for PBMC 10 μM (% control): compound 10 μM;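 on all read-outs here: PBMCs from donor human blood, with a further 1.5 h incubation of the cells in the assay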
P2X7 [2] = molecular target: T1, P2X7; assay: Ca2+ flux (FLIPR) in 1321N1 cells expressing recombinant human P2X7 channel; details: 250 μM BzATP;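 further: Calcium-4 dye-loaded cells exposed to compound for 30 min before agonist addition, fluorescence change read 180 s after agonist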
Procedure: (§1) Cells were seeded at a density of 25000 cells/well (96-well clear bottom black walled plates) in 100 μl volume/well. On the day of the experiment, cell plates were washed with assay buffer, containing (in mM): 130 NaCl, 2 KCl, 1 CaCl2, 1 MgCl2, 10 HEPES, 5 glucose; pH 7.40 and 300 mOs. After the wash, cells were loaded with the Calcium-4 dye (Molecular Device) and incubated in the dark for 60 minutes. Test compounds were prepared at 250× the test concentration in neat DMSO. Intermediate 96-well compound plates were prepared by transferring 1.2 μL of the compound into 300 μL of assay buffer. A further 3× dilution occurred when transferring 50 μL/well of the compound plate to 100 μL/well in the cell plate. Cells were incubated with test compounds and dye for 30 minutes. […] The fluorescence change was measured 180 seconds after adding the agonist.

rat P2X7 = rat P2X7 (Rattus norvegicus (Rat), UniProt Q64663); assay: Ca2+ flux (FLIPR) in 1321N1 cells expressing recombinant rat P2X7 channel; details: 250 μM BzATP;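 further: Calcium-4 dye fluorescence change read 180 s after agonist addition, following 30 min cell preincubation with test compound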
Sequence of rat P2X7 (Q64663 whole entry): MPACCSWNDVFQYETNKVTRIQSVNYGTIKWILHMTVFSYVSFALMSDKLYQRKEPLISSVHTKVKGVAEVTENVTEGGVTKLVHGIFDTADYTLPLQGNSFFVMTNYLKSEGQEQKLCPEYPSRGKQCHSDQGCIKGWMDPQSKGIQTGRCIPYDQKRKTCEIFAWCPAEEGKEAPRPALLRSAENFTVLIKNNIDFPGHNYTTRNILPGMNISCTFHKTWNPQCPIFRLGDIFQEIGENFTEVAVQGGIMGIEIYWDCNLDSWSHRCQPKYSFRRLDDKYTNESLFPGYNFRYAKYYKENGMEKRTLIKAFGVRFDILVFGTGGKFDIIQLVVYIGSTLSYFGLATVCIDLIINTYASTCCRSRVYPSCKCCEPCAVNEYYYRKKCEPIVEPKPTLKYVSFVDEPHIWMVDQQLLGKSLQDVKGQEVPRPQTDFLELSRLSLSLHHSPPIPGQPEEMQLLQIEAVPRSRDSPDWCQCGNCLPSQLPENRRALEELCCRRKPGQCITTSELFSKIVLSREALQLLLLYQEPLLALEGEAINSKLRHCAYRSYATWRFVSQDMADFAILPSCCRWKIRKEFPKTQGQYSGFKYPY
Procedure: as §1

T1 sequence (Q99572 whole entry): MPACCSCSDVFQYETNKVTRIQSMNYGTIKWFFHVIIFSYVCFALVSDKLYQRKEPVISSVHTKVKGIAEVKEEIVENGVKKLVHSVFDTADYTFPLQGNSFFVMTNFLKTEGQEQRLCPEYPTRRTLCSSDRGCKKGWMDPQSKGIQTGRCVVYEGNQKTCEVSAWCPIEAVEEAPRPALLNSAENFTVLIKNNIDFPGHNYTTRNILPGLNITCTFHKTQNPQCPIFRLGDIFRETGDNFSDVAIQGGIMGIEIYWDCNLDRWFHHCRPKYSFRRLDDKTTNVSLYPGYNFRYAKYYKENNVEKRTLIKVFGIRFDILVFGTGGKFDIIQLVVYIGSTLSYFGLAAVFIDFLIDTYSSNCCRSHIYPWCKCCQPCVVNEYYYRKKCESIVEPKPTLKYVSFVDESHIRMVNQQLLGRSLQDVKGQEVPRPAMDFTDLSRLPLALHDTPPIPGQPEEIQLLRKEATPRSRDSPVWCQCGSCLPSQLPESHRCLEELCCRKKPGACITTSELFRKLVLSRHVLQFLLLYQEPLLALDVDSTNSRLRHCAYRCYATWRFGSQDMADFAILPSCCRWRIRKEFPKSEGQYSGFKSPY

Structure (SMILES): O=C(c1cccc(Cl)c1Cl)N1CCc2c(-c3ccc(F)cc3)n[nH]c2C1 [Example 114, 6-[(2,3-Dichlorophenyl)carbonyl]-3-(4-fluorophenyl)-4,5,6,7-tetrahydro-2H-pyrazolo[3,4-c]pyridine]
- PBMC 1 μM (% control) (P2X7 [1]): 20.4 % control
- pIC50 (P2X7 [2]): 7.20
- pIC50 (rat P2X7): 5.90

Structure (SMILES): Cc1c(C(=O)N2Cc3nnn(-c4cc[nH]n4)c3CC2C)cccc1C(F)(F)F (stereo not drawn) [Example 154, (6-methyl-1-(1H-pyrazol-3-yl)-6,7-dihydro-1H-[1,2,3]triazolo[4,5-c]pyridin-5(4H)-yl)(2-methyl-3-(trifluoromethyl)phenyl)methanone]
- PBMC 10 μM (% control) (P2X7 [1]): −0.6 % control
- pIC50 (P2X7 [2]): 7.78
- pIC50 (rat P2X7): 7.99

Structure (SMILES): Cc1cnc(-n2nnc3c2CCN(C(=O)c2cccc(C(F)(F)F)c2Cl)C3C)c(C)c1 (stereo not drawn) [Example 159, (2-chloro-3-(trifluoromethyl)phenyl)(1-(3,5-dimethylpyridin-2-yl)-4-methyl-6,7-dihydro-1H-[1,2,3]triazolo[4,5-c]pyridin-5(4H)-yl)methanone]
- PBMC 10 μM (% control) (P2X7 [1]): 54.1 % control
- pIC50 (P2X7 [2]): < 5.00
- pIC50 (rat P2X7): < 5.00

Structure (SMILES): Cc1cnc(-n2nnc3c2CCN(C(=O)c2cccc(Cl)c2Cl)C3C)c(C)c1 (stereo not drawn) [Example 160, (2,3-dichlorophenyl)(1-(3,5-dimethylpyridin-2-yl)-4-methyl-6,7-dihydro-1H-[1,2,3]triazolo[4,5-c]pyridin-5(4H)-yl)methanone]
- PBMC 10 μM (% control) (P2X7 [1]): 101.5 % control
- pIC50 (P2X7 [2]): < 5.00
- pIC50 (rat P2X7): < 5.00

Structure (SMILES): CC1c2nnn(-c3cncnc3)c2CCN1C(=O)c1cccc(C(F)(F)F)c1Cl (stereo not drawn) [Example 177, (2-Chloro-3-(trifluoromethyl)phenyl)(4-methyl-1-(pyrimidin-5-yl)-6,7-dihydro-1H-[1,2,3]triazolo[4,5-c]pyridin-5(4H)-yl)methanone]
- PBMC 10 μM (% control) (P2X7 [1]): 8.6 % control
- pIC50 (P2X7 [2]): 6.64
- pIC50 (rat P2X7): < 5.00

Structure (SMILES): Cc1cncc(-n2nnc3c2CCN(C(=O)c2cccc(Cl)c2Cl)C3C)n1 (stereo not drawn) [Example 180, (2,3-dichlorophenyl)(4-methyl-1-(6-methylpyrazin-2-yl)-6,7-dihydro-1H-[1,2,3]triazolo[4,5-c]pyridin-5(4H)-yl)methanone]
- PBMC 10 μM (% control) (P2X7 [1]): −3.7 % control
- pIC50 (P2X7 [2]): 6.23
- pIC50 (rat P2X7): < 5.00

Structure (SMILES): Cc1cc(C)nc(-n2nnc3c2CCN(C(=O)c2cccc(Cl)c2Cl)C3C)c1 (stereo not drawn) [Example 231, (2,3-dichlorophenyl)(1-(4,6-dimethylpyridin-2-yl)-4-methyl-6,7-dihydro-1H-[1,2,3]triazolo[4,5-c]pyridin-5(4H)-yl)methanone]
- PBMC 10 μM (% control) (P2X7 [1]): −4.8 % control
- pIC50 (P2X7 [2]): 6.30
- pIC50 (rat P2X7): 4.42

Structure (SMILES): CC1c2nnn(-c3cncnc3)c2C=CN1C(=O)c1cccc(C(F)(F)F)c1Cl (stereo not drawn) [Example 236, (2-Chloro-3-(trifluoromethyl)phenyl)(4-methyl-1-(pyrimidin-5-yl)-1H-[1,2,3]triazolo[4,5-c]pyridin-5(4H)-yl)methanone]
- PBMC 10 μM (% control) (P2X7 [1]): 9.3 % control
- pIC50 (P2X7 [2]): 5.93
- pIC50 (rat P2X7): < 5.00

Structure (SMILES): CC1CN(C(=O)c2cccc(C(F)(F)F)c2Cl)C(C)c2nnn(-c3ccc(F)cc3)c21 (stereo not drawn) [Example 238, (2-Chloro-3-(trifluoromethyl)phenyl)(1-(4-fluorophenyl)-4,7-dimethyl-6,7-dihydro-1H-[1,2,3]triazolo[4,5-c]pyridin-5(4H)-yl)methanone]
- PBMC 10 μM (% control) (P2X7 [1]): −4.1 % control
- pIC50 (P2X7 [2]): 7.57
- pIC50 (rat P2X7): 6.14

Structure (SMILES): CC1c2ncn(-c3ccc(F)cn3)c2CCN1C(=O)c1ccc(F)cc1Cl (stereo not drawn) [Example 256, (2-chloro-4-fluorophenyl)(1-(5-fluoropyridin-2-yl)-4-methyl-6,7-dihydro-1H-imidazo[4,5-c]pyridin-5(4H)-yl)methanone]
- PBMC 10 μM (% control) (P2X7 [1]): 7.1 % control
- pIC50 (P2X7 [2]): 5.62
- pIC50 (rat P2X7): < 5.00

Structure (SMILES): CC1Cc2c(-c3ccn[nH]3)n[nH]c2CN1C(=O)c1ccc(Cl)cc1Cl (stereo not drawn) [Example 268, (2,4-dichlorophenyl)(5-methyl-3-(1H-pyrazol-5-yl)-4,5-dihydro-1H-pyrazolo[3,4-c]pyridin-6(7H)-yl)methanone]
- PBMC 10 μM (% control) (P2X7 [1]): −59.9 % control
- pIC50 (P2X7 [2]): 6.22
- pIC50 (rat P2X7): 5.91

Structure (SMILES): CC1c2c(nnn2-c2ccccc2)CCN1C(=O)c1cccc(C(F)(F)F)c1Cl (stereo not drawn) [Example 289, (2-chloro-3-(trifluoromethyl)phenyl)(4-methyl-3-phenyl-6,7-dihydro-3H-[1,2,3]triazolo[4,5-c]pyridin-5(4H)-yl)methanone]
- PBMC 10 μM (% control) (P2X7 [1]): −27.6 % control
- pIC50 (P2X7 [2]): 5.93
- pIC50 (rat P2X7): 5.62

Structure (SMILES): CCc1cccnc1-n1nnc2c1CCN(C(=O)c1cccc(C(F)(F)F)c1)C2C (stereo not drawn) [Example 295, (1-(3-ethylpyridin-2-yl)-4-methyl-6,7-dihydro-1H-[1,2,3]triazolo[4,5-c]pyridin-5(4H)-yl)(3-(trifluoromethyl)phenyl)methanone]
- PBMC 10 μM (% control) (P2X7 [1]): 10.1 % control
- pIC50 (P2X7 [2]): < 5.00
- pIC50 (rat P2X7): < 5.00

Structure (SMILES): CC1c2nn(COCC[Si](C)(C)C)c(-c3ncc(F)cn3)c2CCN1C(=O)c1cccc(C(F)(F)F)c1Cl (stereo not drawn) [Example 303, (2-chloro-3-(trifluoromethyl)phenyl)(3-(5-fluoropyrimidin-2-yl)-7-methyl-2-((2-(trimethylsilyl)ethoxy)methyl)-4,5-dihydro-2H-pyrazolo[3,4-c]pyridin-6(7H)-yl)methanone]
- PBMC 10 μM (% control) (P2X7 [1]): −1.6 % control
- pIC50 (P2X7 [2]): 5.16
- pIC50 (rat P2X7): 5.29

Structure (SMILES): C[C@H]1Cc2c(nnn2-c2ncc(F)cn2)CN1C(=O)c1cc(F)cc(C(F)(F)F)c1 [Example 307, (S)-(3-fluoro-5-(trifluoromethyl)phenyl)(1-(5-fluoropyrimidin-2-yl)-6-methyl-6,7-dihydro-1H-[1,2,3]triazolo[4,5-c]pyridin-5(4H)-yl)methanone]
- PBMC 10 μM (% control) (P2X7 [1]): 2.2 % control
- pIC50 (P2X7 [2]): < 5.00
- pIC50 (rat P2X7): 4.97

Structure (SMILES): CC1c2[nH]nc(C(F)(F)F)c2CCN1C(=O)c1cccc(C(F)(F)F)c1Cl (stereo not drawn) [Example 308, (2-chloro-3-(trifluoromethyl)phenyl)(7-methyl-3-(trifluoromethyl)-4,5-dihydro-1H-pyrazolo[3,4-c]pyridin-6(7H)-yl)methanone]
- PBMC 10 μM (% control) (P2X7 [1]): 22.9 % control
- pIC50 (P2X7 [2]): < 5.00
- pIC50 (rat P2X7): < 5.00

Second part, the compound after the results:

- PBMC 10 μM (% control) (P2X7 [1]): 4.3 % control
- pIC50 (P2X7 [2]): 5.65
- pIC50 (rat P2X7): < 5.00
Structure (SMILES): O=C(c1ccc(F)cc1Cl)N1CCc2c(nnn2-c2ccccn2)C1 [Example 117, (2-Chloro-4-fluorophenyl)(1-(pyridin-2-yl)-6,7-dihydro-1H-[1,2,3]triazolo[4,5-c]pyridin-5(4H)-yl)methanone]

- PBMC 1 μM (% control) (P2X7 [1]): 83.4 % control
- pIC50 (P2X7 [2]): 6.80
- pIC50 (rat P2X7): 5.90
Structure (SMILES): COc1ccccc1-n1nnc2c1CCN(C(=O)c1cccc(C(F)(F)F)c1Cl)C2 [Example 125, (2-Chloro-3-(trifluoromethyl)phenyl)(1-(2-methoxyphenyl)-6,7-dihydro-1H-[1,2,3]triazolo[4,5-c]pyridin-5(4H)-yl)methanone]

- PBMC 10 μM (% control) (P2X7 [1]): 23.1 % control
- pIC50 (P2X7 [2]): 5.68
- pIC50 (rat P2X7): < 5.00
Structure (SMILES): Cn1nccc1-n1nnc2c1CCN(C(=O)c1cccc(C(F)(F)F)c1Cl)C2 [Example 128, (2-Chloro-3-(trifluoromethyl)phenyl)(1-(1-methyl-1H-pyrazol-5-yl)-6,7-dihydro-1H-[1,2,3]triazolo[4,5-c]pyridin-5(4H)-yl)methanone]

- PBMC 10 μM (% control) (P2X7 [1]): 8.4 % control
- pIC50 (P2X7 [2]): 6.44
- pIC50 (rat P2X7): 5.47
Structure (SMILES): O=C(c1ccc(Cl)cc1F)N1CCc2c(nnn2-c2ccccn2)C1 [Example 129, (4-Chloro-2-fluorophenyl)(1-(pyridin-2-yl)-6,7-dihydro-1H-[1,2,3]triazolo[4,5-c]pyridin-5(4H)-yl)methanone]

- PBMC 10 μM (% control) (P2X7 [1]): 1.8 % control
- pIC50 (P2X7 [2]): 7.84
- pIC50 (rat P2X7): 6.22
Structure (SMILES): C[C@H]1Cc2c(nnn2-c2ncc(F)cn2)CN1C(=O)c1ccc(Cl)cc1F [Example 156, (S)-(4-chloro-2-fluorophenyl)(1-(5-fluoropyrimidin-2-yl)-6-methyl-6,7-dihydro-1H-[1,2,3]triazolo[4,5-c]pyridin-5(4H)-yl)methanone]

- PBMC 10 μM (% control) (P2X7 [1]): 89.5 % control
- pIC50 (P2X7 [2]): < 5.00
- pIC50 (rat P2X7): < 5.00
Structure (SMILES): CC1c2ncn(-c3ccc(F)cn3)c2CCN1C(=O)c1ccccc1F (stereo not drawn) [Example 264, (2-fluorophenyl)(1-(5-fluoropyridin-2-yl)-4-methyl-6,7-dihydro-1H-imidazo[4,5-c]pyridin-5(4H)-yl)methanone]

- PBMC 10 μM (% control) (P2X7 [1]): 18.7 % control
- pIC50 (P2X7 [2]): 5.55
- pIC50 (rat P2X7): < 5.00
Structure (SMILES): O=C(c1cccc(C(F)(F)F)c1F)N1CCc2c(ncn2-c2ccc(F)cn2)C1 [Example 314, (2-fluoro-3-(trifluoromethyl)phenyl)(1-(5-fluoropyridin-2-yl)-6,7-dihydro-1H-imidazo[4,5-c]pyridin-5(4H)-yl)methanone]

- PBMC 1 μM (% control) (P2X7 [1]): 93.1 % control
- pIC50 (P2X7 [2]): < 5.00
- pIC50 (rat P2X7): < 5.00
Structure (SMILES): Cn1nc2c(c1-c1ccncc1)CCN(C(=O)c1cccc(C(F)(F)F)c1Cl)C2 [Example 327, (2-chloro-3-(trifluoromethyl)phenyl)(2-methyl-3-(pyridin-4-yl)-4,5-dihydro-2H-pyrazolo[3,4-c]pyridin-6(7H)-yl)methanone]

- PBMC 1 μM (% control) (P2X7 [1]): 88.0 % control
- pIC50 (P2X7 [2]): < 5.00
- pIC50 (rat P2X7): < 5.00
Structure (SMILES): Cn1nc2c(c1-c1ccncc1)CCN(C(=O)c1cccc(Cl)c1Cl)C2 [Example 328, (2,3-dichlorophenyl)(2-methyl-3-(pyridin-4-yl)-4,5-dihydro-2H-pyrazolo[3,4-c]pyridin-6(7H)-yl)methanone]

- PBMC 1 μM (% control) (P2X7 [1]): 99.5 % control
- pIC50 (P2X7 [2]): < 5.00
- pIC50 (rat P2X7): < 5.00
Structure (SMILES): Cn1nc2c(c1-c1cncnc1)CCN(C(=O)c1cccc(Cl)c1Cl)C2 [Example 329, (2,3-dichlorophenyl)(2-methyl-3-(pyrimidin-5-yl)-4,5-dihydro-2H-pyrazolo[3,4-c]pyridin-6(7H)-yl)methanone]
